The compounds below were run against Induced myeloid leukemia cell differentiation protein Mcl-1 (Homo sapiens) (UniProt Q07820) (assay: Mcl-1/Noxa binding inhibitor potency, dose response, biochemical, TR-FRET (AID 1417)). Conditions: Mcl-1/Noxa peptide interaction, cell-free TR-FRET (terbium/rhodamine), 2 h; measured here: absolute IC50.
Chain of Induced myeloid leukemia cell differentiation protein Mcl-1 (Homo sapiens) (Q07820 whole entry, looked up): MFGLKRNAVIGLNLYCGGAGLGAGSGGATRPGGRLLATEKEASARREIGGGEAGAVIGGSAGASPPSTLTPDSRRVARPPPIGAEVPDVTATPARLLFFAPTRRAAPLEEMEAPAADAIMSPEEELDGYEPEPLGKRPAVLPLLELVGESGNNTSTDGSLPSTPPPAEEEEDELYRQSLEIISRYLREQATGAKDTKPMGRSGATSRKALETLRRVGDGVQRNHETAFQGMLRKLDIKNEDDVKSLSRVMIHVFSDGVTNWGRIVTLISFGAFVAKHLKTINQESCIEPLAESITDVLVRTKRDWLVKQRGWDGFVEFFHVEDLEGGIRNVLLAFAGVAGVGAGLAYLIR

| SMILES | IC50 |
| --- | --- |
| O=C(Nc1ccccc1Cl)c1cnccn1 | > 54 µM |
| COc1ccc(C(CC(=O)N2CCCC2)c2c(OC)cc(OC)c3c(-c4ccccc4)cc(=O)oc23)cc1 (stereo not given) | 3.89 µM |
| COc1cc(OC)c2c(O)c3c(c(-c4c5c(c(O)c6c(OC)cc(OC)cc46)CO[C@@H](C)[C@H]5O)c2c1)[C@H](O)[C@H](C)OC3 | > 54 µM |
| Nc1ccc(N2CCCCC2)cc1N1CCCCC1 | > 54 µM |
| Cc1ccc(N2C(=O)NC(=O)/C(=C/c3ccoc3)C2=O)cc1 | 4.36 µM |
| CC1(c2ccccc2)CC(C)(C)N2C(=O)/C(=C3\SC(=S)NC3=O)c3cccc1c32 (stereo not given) | < 0.4 µM |
| NC(=S)n1[nH]c(-c2ccc([N+](=O)[O-])cc2)c(N=Nc2ccc(O)cc2)c1=O | 3.13 µM |
| NC(=O)c1ccsc1NC(=O)COC(=O)/C=C/c1ccc([N+](=O)[O-])cc1 | 2.88 µM |
| NC(=S)n1[nH]c(-c2ccc([N+](=O)[O-])cc2)c(N=Nc2ccccc2[N+](=O)[O-])c1=O | < 0.4 µM |
| O=C1/C(=C\c2ccccn2)SC(=S)N1c1ccc(S(=O)(=O)Nc2nccs2)cc1 | 2.69 µM |
| N=c1c(C(=O)NCc2ccc(F)cc2)cc2c(=O)n3ccccc3nc2n1Cc1cccnc1 | 3.21 µM |
| CCC(C)(C)n1nnnc1C(c1ccc(O)c(OC)c1)N1CCc2ccccc2C1 (stereo not given) | < 0.4 µM |
| CCOC(=O)C1=C(C)NC2=C(C(=O)CC(C)(C)C2)C1c1ccc2c(c1)CCCN2C (stereo not given) | > 54 µM |
| COC(=O)c1ccc(=O)c2nc3/c(=C/O)c(O)cc(=O)c3[nH]c12 | < 0.4 µM |
| CSc1cnn(Cc2ccccc2)c(=O)c1SCc1ccccc1 | > 54 µM |
| C/C(=N\NC(=O)c1cccc(N/N=C(\C)c2ccco2)c1)c1ccco1 | 2.88 µM |
| NC(=O)c1c(NC(=O)CSc2nnc(-c3ccco3)n2-c2ccccc2)sc2c1CCC2 | 5.75 µM |
| N=c1c(C(=O)NCc2ccc3c(c2)OCO3)cc2c(=O)n3ccccc3nc2n1Cc1cccnc1 | 3.26 µM |
| Cc1ccc(-c2cc(C(=O)O)c3cc(Br)ccc3n2)o1 | 4.68 µM |
| CCOc1ccc(C(Nc2cccnc2)c2cc(Cl)c3cccnc3c2O)cc1 (stereo not given) | 3.25 µM |
| CN1C(=O)/C(=C2\SC(=S)N(CCCCCC(=O)O)C2=O)c2ccccc21 | 2.85 µM |
| O=C1NC(=S)/C(=C\c2ccc(-c3ccccc3Cl)o2)S1 | 2.13 µM |
| Cc1ccc(NC(=O)CN2C(=O)S/C(=C\c3cccn3-c3cccc(C(=O)O)c3)C2=O)c(C)c1 | 13.1 µM |
| COc1ccc(C(=O)N=c2c(C#N)cc3c(=O)n4cccc(C)c4nc3n2Cc2ccco2)cc1 | 13.8 µM |
| CCN(CC)S(=O)(=O)c1ccc(N2CCOCC2)c(NC(=O)c2c3c(nc4ccccc24)CCC3)c1 | 5.73 µM |

| SMILES | IC50 |
| --- | --- |
| Cc1ccc(-n2nc(C)cc2NC(=O)COc2cc(C)cc3oc(=O)c4c(c23)CCC4)cc1 | > 54 µM |
| O=C(CCN1C(=O)S/C(=C\c2ccccc2)C1=O)Nc1ccc(S(=O)(=O)Nc2nccs2)cc1 | 7.65 µM |
| CC(=O)N1C(=O)/C(=C2\SC(=S)N(NC(=O)c3ccc(O)cc3)C2=O)c2ccccc21 | 1.55 µM |
| Nc1c(C(=O)NCc2ccco2)sc2nc3c(cc12)C(=O)CCC3 | 2.34 µM |
| COc1cc(/C=N/NC(=O)C2c3ccccc3Oc3ccccc32)ccc1O | 6.68 µM |
| CCNC(=O)COC(=O)c1cc(-c2ccco2)nc2ccccc12 | 1.81 µM |
| O=C(COc1ccc2ccccc2c1)NNC(=O)c1ccc([N+](=O)[O-])cc1 | 8.48 µM |
| Clc1cccc(/C=N/Nc2nc(Cl)nc3ccccc23)c1 | > 54 µM |
| COc1ccccc1CNC(=O)COC(=O)c1cc(-c2ccco2)nc2ccccc12 | 1.8 µM |
| CC(=O)Nc1sc(N/N=C\c2ccco2)nc1-c1cccs1 | 10.6 µM |
| COc1cc2c(ccc3cc(OC)c(OC)c(O)c32)cc1O | < 0.4 µM |
| Cc1ccc(/C=C2\SC(=S)N(/N=C/c3cc([N+](=O)[O-])ccc3O)C2=O)o1 | < 0.4 µM |
| O=C(NCc1ccccn1)c1ccc2nc(-c3ccco3)c(-c3ccco3)nc2c1 | 1.38 µM |
| C=CCn1c(N2CCCCCC2)nc2c1c(=O)n(C)c(=O)n2C | > 54 µM |
| O=C1CCCC2=C1C(c1ccco1)Nc1ccc3ccccc3c12 (stereo not given) | 2.22 µM |
| CCNc1ccc(Br)cc(C(=O)/C=C/c2c(Cl)cccc2Cl)c1=O | 1.8 µM |
| CCN1C(=O)/C(=C/c2ccc3c(c2)CCN3CCCCl)C(=O)NC1=S | 2.57 µM |
| O=C(CSc1cccc[n+]1[O-])Nc1cc2c(cc1Cl)C(=O)c1ccccc1C2=O | 3.74 µM |
| O=[N+]([O-])c1ccc(-c2cn(-c3ccc(Cl)cc3)c(=S)[nH]2)cc1 | 7.17 µM |
| COc1ccccc1NC(=O)C(=O)N/N=C/c1ccc([N+](=O)[O-])s1 | 6.17 µM |
| Cc1ccc(N2NC(=O)/C(=C\c3cc4c(cc3[N+](=O)[O-])OCO4)C2=O)cc1C | 4.92 µM |
| NC1=NC(=O)/C(=C/c2cn(CCC(=O)O)nc2-c2ccc(Cl)cc2)S1 | 5.91 µM |
| N#C/C(=C\c1ccc(C(=O)O)cc1)c1nc2sc3c(c2c(=O)[nH]1)CCCC3 | 2.95 µM |
| O=C(Nc1ccc([N+](=O)[O-])cc1)Nc1nc(-c2ccc(Cl)s2)cs1 | 1.82 µM |
| COc1ccc(NC(=S)NNc2ccc(S(=O)(=O)Nc3ccccc3C(=O)O)cc2[N+](=O)[O-])cc1 | > 54 µM |

| SMILES | IC50 |
| --- | --- |
| CC(C)(C)C1CCc2c(C(=O)NNC(=O)CCC(=O)O)csc2C1 (stereo not given) | > 54 µM |
| COc1cc(/C=N\Nc2nc(-c3cccs3)c(NC(C)=O)s2)ccc1O | < 0.4 µM |
| O=C(Nc1cccc(Cl)c1)Nc1nnc(-c2ccncc2)s1 | 4.03 µM |
| Cc1sc(NC(=O)c2cc(-c3ccc(Cl)cc3)nc3ccccc23)c(C(N)=O)c1C | 18.2 µM |
| Cc1cc(C)c(S(=O)(=O)Nc2cc(SCC(=O)O)c(O)c3ccccc23)cc1C | < 0.4 µM |
| Cc1cc2ncn(/N=C/c3ccc([N+](=O)[O-])s3)c2cc1C | 5.32 µM |
| O=C(O)CCN1C(=O)/C(=C\c2ccc(-c3nc4ccccc4s3)o2)SC1=S | < 0.4 µM |
| CCN(c1ccc(NC(=O)c2ccc(Cl)nc2)cc1)C(C)C | > 54 µM |
| CS(=O)(=O)C1=NSC2=NC(=O)/C(=C\c3cccn3-c3ccccc3Cl)C(=N)N21 | 5.59 µM |
| CCN1C(=O)/C(=C2/Sc3ccc(OC)cc3N2C)SC1=Nc1cccc(O)c1 | > 54 µM |
| CC1=C(C#N)C(=O)NC(=O)/C1=C/c1ccc(-c2ccc(S(N)(=O)=O)cc2)o1 | < 0.4 µM |
| O=C(O)c1ccccc1-c1ccc(/C=c2\sc3nc4cc(Br)cnc4n3c2=O)o1 | 3.09 µM |
| CCOC(=O)c1c(C)oc2c1c(CN1CCN(CCO)CC1)c(O)c1ccccc12 | < 0.4 µM |
| CCc1c(C)[nH]c2ccc(OC)cc2c1=S | < 0.4 µM |
| Cc1ccc(NC(=O)Cn2c(O)c(N=NC(=O)c3cc4ccccc4cc3O)c3ccccc32)cc1 | 2.98 µM |
| O=C(O)c1ccccc1N/N=C/c1cc(Br)cc(Br)c1O | 7.51 µM |
| COc1ccc2c(c1)CC/C(=C\Nc1ccc3c(c1)OCO3)C2=O | > 54 µM |
| O=C1NC(=S)NC(=O)C1=Cc1ccc2c(c1)CCN2CCCCl | < 0.4 µM |
| CCOC(=O)CSc1nnc2n1C(C)(C)Cc1ccccc1-2 | > 54 µM |
| COc1ccc(S(=O)(=O)Nc2cc(Sc3ncn[nH]3)c(O)c3ccccc23)cc1 | < 0.4 µM |
| O=C(O)CCCN1C(=O)/C(=C/C=C/c2ccco2)SC1=S | > 54 µM |
| COc1cc(/C=N/NC(=O)C(Cc2c[nH]c3ccccc23)NC(=O)OCc2ccccc2)cc([N+](=O)[O-])c1O (stereo not given) | 4.82 µM |
| O=C(Nc1cccc(Oc2ccc(C(=O)O)c(C(=O)O)c2)c1)c1ccc(-c2ccccc2)cc1 | 3.61 µM |
| Cc1cccc2c1c1ccc3c(c1n2C)C(=O)C=CC3=O | < 0.4 µM |
| Cc1ccc(S(=O)(=O)Nc2ccc(N(C)C)cc2)cc1 | > 54 µM |

— PubChem BioAssay AID1417 (Emory University Molecular Libraries Screening Center, 2008)
